Data on four molecules can be found in patent US10543284B2, “Anti-c-Met antibody and anti-c-Met antibody-cytotoxic drug conjugate and pharmaceutical use thereof” (Suzhou Suncadia Biopharmaceuticals Co., Ltd., priority 2015, dated 2020).

What is called IC50 is the concentration at which inhibition is half-maximal. Lower therefore signals inhibition by little substance.

Assay [1] deals with MKN45 cell. Description: ATP cytotoxicity test (CellTiter-Glo, 72 hours) in MKN45. Format: cell-based, human. On the procedure:
In order to assess the toxic effects of the ADC molecules of the present invention on cells, the ATP toxicity test was performed. ATP is an indicator of the metabolism of living cells, and the detection of ATP can reflect the effect of the toxicity of molecules on cells.
HepG2 cells (Chinese Academy of Sciences cell bank, Cat # TCHu 72) were cultivated in EMEM complete medium containing 10% FBS, and MKN45 cells were cultivated in RPMI1640 complete medium containing 10% FBS. Trypsinization was performed for 2-3 min by adding 2-3 ml trypsin, 10-15 ml complete medium was added to elute the trypsinized cells when the trypsinization was complete, and the cells were centrifuged at 1000 rpm for 3 min. The supernatant was discarded, 10-20 ml complete medium was added to resuspend the cells to obtain a single cell suspension, and the cell density was adjusted to 4×10^4 cells/ml. 0.1 ml of the above cell suspension was added to each well of a 96-well cell culture plate and cultivated in an incubator at 37° C. in 5% CO2. […] The chemiluminescence was measured by a microplate reader (VICTOR 3, PerkinElmer), and the result was analyzed by GraphPad Prism (version 5.0) software.
On the technique in general: In ATP-based viability assays light output follows the ATP content of the culture.

For assay [2], the system named is HepG2 cell. Description: ATP cytotoxicity test (CellTiter-Glo, 72 hours) in HepG2. Format: cell-based, human.
Method: HepG2 cells (Chinese Academy of Sciences cell bank, Cat # TCHu 72) were cultivated in EMEM complete medium containing 10% FBS, and MKN45 cells were cultivated in RPMI1640 complete medium containing 10% FBS. Trypsinization was performed for 2-3 min by adding 2-3 ml trypsin, 10-15 ml complete medium was added to elute the trypsinized cells when the trypsinization was complete, and the cells were centrifuged at 1000 rpm for 3 min. The supernatant was discarded, 10-20 ml complete medium was added to resuspend the cells to obtain a single cell suspension, and the cell density was adjusted to 4×10^4 cells/ml. 0.1 ml of the above cell suspension was added to each well of a 96-well cell culture plate and cultivated in an incubator at 37° C. in 5% CO2. […] Detection was performed according to the instructions of CellTiter-Glo® Luminescent Cell Viability Assay kit (Promega, Cat # G7571). The chemiluminescence was measured by a microplate reader (VICTOR 3, PerkinElmer), and the result was analyzed by GraphPad Prism (version 5.0) software.
For assay [3], the system named is a variety of human tumor cell lines. To be noted: cited from earlier work.
In assay [4] the target is T1, human c-Met-His (Homo sapiens, UniProt P08581).
T1 construct: His (C); made in house; host or cells: 293F cells
T1 sequence (P08581 25-932 limits assumed): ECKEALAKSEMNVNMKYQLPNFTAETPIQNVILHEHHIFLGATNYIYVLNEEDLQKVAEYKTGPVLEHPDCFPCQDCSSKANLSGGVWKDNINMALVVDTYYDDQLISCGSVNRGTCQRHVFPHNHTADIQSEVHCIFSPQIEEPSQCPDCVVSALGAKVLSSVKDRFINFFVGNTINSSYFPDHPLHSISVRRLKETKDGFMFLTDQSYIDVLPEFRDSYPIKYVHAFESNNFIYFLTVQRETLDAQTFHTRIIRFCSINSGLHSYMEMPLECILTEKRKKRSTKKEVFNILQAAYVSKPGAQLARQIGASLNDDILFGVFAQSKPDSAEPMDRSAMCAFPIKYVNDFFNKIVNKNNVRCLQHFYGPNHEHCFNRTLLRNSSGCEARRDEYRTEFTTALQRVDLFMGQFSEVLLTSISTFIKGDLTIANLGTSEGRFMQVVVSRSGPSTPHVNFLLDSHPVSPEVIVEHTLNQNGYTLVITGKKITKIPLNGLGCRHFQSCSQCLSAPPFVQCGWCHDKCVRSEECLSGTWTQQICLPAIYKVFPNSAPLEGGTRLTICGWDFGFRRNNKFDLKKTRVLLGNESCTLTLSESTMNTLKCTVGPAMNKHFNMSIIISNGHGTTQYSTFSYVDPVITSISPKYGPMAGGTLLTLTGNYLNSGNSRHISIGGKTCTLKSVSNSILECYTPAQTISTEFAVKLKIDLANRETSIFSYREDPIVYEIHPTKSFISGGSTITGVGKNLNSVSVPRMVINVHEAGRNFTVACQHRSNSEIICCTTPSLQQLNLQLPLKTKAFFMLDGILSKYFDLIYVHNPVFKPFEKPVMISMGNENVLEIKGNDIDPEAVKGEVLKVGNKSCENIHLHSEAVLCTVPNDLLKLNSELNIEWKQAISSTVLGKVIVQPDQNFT
The experiment in a line: ELISA binding of c-Met antibody to c-Met antigen. To be noted: hybridoma fusion clones, ELISA read at 450 nm. On the procedure: This experiment uses enzyme linked immunosorbent assay (ELISA) to detect affinity of c-Met antibody to c-Met antigen in vitro (including supernatant of hybridoma or recombinantly expressed monoclonal antibodies).
Experimental procedures: Coating buffer (PBS; Hyclone, Cat No.: SH30256.01B) was used to dilute antigen (human c-Met-His, example 1) to 2 μg/ml, which was added to 96-well plate with 100 μl/well (Costar 9018, Cat No.: 03113024) and incubated overnight at 4′C. […] The plate was read with plate reader at 450 nm.
After immunization, mice with a serum titer higher than 1:10^5 were selected for fusion. Mouse B-cells and myeloma cells (SP2/0, ATCC number: CRL-1581™) were prepared respectively in aseptic conditions and counted. […] The next day, positive clones were detected by ELISA (see Methods in Example 2).

For assay [5], the system named is MKN45 cells. The experiment in a line: Inhibition of proliferation of MKN45 gastric cancer cells (CellTiter-Glo, 5 days). The settings on record: monoclone culture supernatant, 5 days. Format: cell-based, human. The text has this:
The clones above were selected and further cultured to obtain monoclones. After verification of binding activity by ELISA, monoclones were selected for cultivation, and the resulting supernatant was subjected to a cell viability assay. According to the experiment principle, anti-human c-Met antibodies of the invention are able to inhibit phosphorylation of c-Met expressed on the surface of human gastric cancer cell line MKN45, thereby inhibiting the proliferation of MNK45 cells.
Human gastric cancer cells (MKN45, JCRB, JCRB0254, P11) were added to a 96-well cell culture plate (costar, #3799) at 1×10^5 cells/mL and 50 μl/well. The medium was RPMI1640 medium: (GIBCO, cat #11835)+10% FBS (GIBCO-10099141). Anti-human c-Met antibodies to be tested were added at 50 μl/well, and the plate was cultured for 5 days in incubator at 37′C (Manufacture: SANYO; Equipment No. TINC035). CellTiter-Glo® Luminescent Cell Viability Assay (Promega, G7573) was used, and the proliferation of cells was detected according to the instructions. The plate was read by a PerkinElmer plate reader, TREA001-RDA-IBA100. The following formula was used to calculate the percentage proliferation of cells: % proliferation of cells=(1−cell reads in experimental group/cell reads in untreated group)×100%.

Read-outs that look alike come from different tables or passages of the source. *1 amine or outer side, *2 acyl side, *3 side chain or, on linkers, in order; H or OH if unused. Where a SMILES comes first, the peptide text is derived from it. [ ]: non-standard residue; d: D form. X1 = CO[C@H]([C@@H](C)C(=O)[*:2])[C@@H]1C[C@@H]2C[C@@H]2N1[*:1]; Dolaproine = CO[C@@H]([C@@H]1CCCN1)[C@@H](C)C(=O)O; Dil = CC[C@H](C)[C@H](NC)[C@@H](CC(=O)O)OC; Phe(2-F) = N[C@@H](Cc1ccccc1F)C(=O)O; NMeV = CN[C@H](C(=O)O)C(C)C

Turning to `CC[C@H](C)[C@@H]([C@@H](CC(=O)N1[C@H]2C[C@H]2C[C@H]1[C@H](OC)[C@@H](C)C(=O)N[C@@H](Cc1ccccc1F)C(=O)O)OC)N(C)C(=O)[C@@H](NC(=O)[C@@H](NC)C(C)C)C(C)C` [12 g, (S)-2-((2R,3R)-3-((1S,3S,5S)-2-((3R,4S,5S)-4-((S)—N,3-dimethyl-2-((S)-3-methyl-2-(methylamino)butyramide)butyramide)-3-methoxy-5-methylheptanoyl)-2-azabicyclo[3.1.0]hexane-3-yl)-3-methoxy-2-methylpropanamido)-3-(2-fluorophenyl)propionic acid] (H-[NMeV]V[Dil][X1][Phe(2-F)]-OH), the IC50 in assay [1] (Homo sapiens, MKN-45) is 79.4 nM; in assay [2] (Homo sapiens, HepG2, ND: No activity was detected), 401 nM.

With `CC[C@H](C)[C@@H]([C@@H](CC(=O)N1CCC[C@H]1[C@H](OC)[C@@H](C)C(=O)N[C@@H](Cc1ccccc1)C(=O)O)OC)N(C)C(=O)[C@@H](NC(=O)[C@@H](NC)C(C)C)C(C)C` [MMAF, reference compound] (H-[NMeV]V[Dil][Dolaproine]F-OH), the IC50 in assay [1] was found to be 0.85 nM; in assay [2] (ND: No activity was detected), 4.88 nM. Regarding `CC[C@H](C)C([C@@H](CC(=O)N1CCC[C@H]1[C@H](OC)[C@@H](C)C(=O)N[C@H](C)[C@@H](O)c1ccccc1)OC)N(C)C(=O)[C@@H](NC(=O)[C@@H](NC)C(C)C)C(C)C` (stereo partly shown) [MMAE, Monomethyl aurantatin E], the “inhibitory activities against a variety of human tumor cell lines” value in assay [3] is “less than one nanomolar”.

B1: Ab-5: mouse hybridoma cell monoclonal antibody; heavy chain variable region SEQ ID NO: 4, light chain variable region SEQ ID NO: 5 (antibody, V domains shown)
VH: QVQLKQSGPGLVQPSQSLSITCTVSGFSLPNYGVHWVRQSPGKGLEWLGVIWSGGSTNYAAAFVSRLRISKDNSKSQVFFEMNSLQADDTAVYYCARNHDNPYNYAMDYWGQGTTVTVSS
VL: DIVLTQSPGSLAVYLGQRATISCRANKSVSTSTYNYLHWYQQKPGQPPKLLIYLASNLASGVPARFSGSGSGTDFTLNIHPLEEEDAATYYCQHSRDLPPTFGAGTKLELKR
modifications: Murine
As to B1, the “Detection Results (OD450)” value in assay [4] came out at 1.64. Also, in assay [5], the “MKN45 inhibition percentage (%)” value came out at 77.4%.
